According to paper PMC9719519, “Non-classical ferroptosis inhibition by a small molecule targeting PHB2” (Nature Communications, 2022):

How the values were obtained:
Assay in all cases: biochemical
Parameters in all cases: Eurofins recombinant human kinase profiling, remaining kinase activity as % of control, 10 uM ATP
Conditions in all cases: ATP 10 uM; read-out: %Ctrl@10 μM
[1] = molecular target: EGFR(T790M,L858R)(h) (Homo sapiens, UniProt P00533, L858R/T790M)
Method in brief: (§1)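 Recombinant human kinases, 401 in total, screened using an outsourced kinase profiling assay.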

[2] = molecular target: T1, CHK2(I157T)(h) (Homo sapiens, UniProt O96017, I157T)
T1 construct: gene CHEK2
Method in brief: as §1

[3] = molecular target: Met(h) (Homo sapiens, UniProt P08581)
Method in brief: as §1

[4] = molecular target: T2, ACTR2(h) (Homo sapiens, UniProt P27037)
T2 construct: gene ACVR2A
Method in brief: as §1

[5] = molecular target: T3, MINK(h) (Homo sapiens, UniProt Q8N4C8)
T3 construct: gene MINK1
Method in brief: as §1

[6] = molecular target: EphA4(h) (Homo sapiens, UniProt P54764)
Method in brief: as §1

[7] = molecular target: T4, Abl (H396P) (h) (Homo sapiens, UniProt P00519, H396P)
T4 construct: gene ABL1
Method in brief: as §1

[8] = molecular target: T5, ALK2(h) (Homo sapiens, UniProt Q04771)
T5 construct: gene ACVR1
Method in brief: as §1

[9] = molecular target: EphA1(h) (Homo sapiens, UniProt P21709)
Method in brief: as §1

[10] = molecular target: GRK2(h) (Homo sapiens, UniProt P25098)
Method in brief: as §1

[11] = molecular target: VRK1(h) (Homo sapiens, UniProt Q99986)
Method in brief: as §1

[12] = molecular target: FGFR4(h) (Homo sapiens, UniProt P22455)
Method in brief: as §1

[13] = molecular target: T6, SAPK4(h) (Homo sapiens, UniProt O15264)
T6 construct: gene MAPK13
Method in brief: as §1

[14] = molecular target: FGFR3(h) (Homo sapiens, UniProt P22607)
Method in brief: as §1

[15] = molecular target: T7, PEK(h) (Homo sapiens, UniProt Q9NZJ5)
T7 construct: gene EIF2AK3
Method in brief: as §1

[16] = molecular target: T8, AMPKα1(h) (Homo sapiens, UniProt Q13131)
T8 construct: gene PRKAA1
Method in brief: as §1

[17] = molecular target: T9, TAO3(h) (Homo sapiens, UniProt Q9H2K8)
T9 construct: gene TAOK3
Method in brief: as §1

[18] = molecular target: T10, MLK2(h) (Homo sapiens, UniProt Q02779)
T10 construct: gene MAP3K10
Method in brief: as §1

[19] = molecular target: JAK1(h) (Homo sapiens, UniProt P23458)
Method in brief: as §1

[20] = molecular target: T11, PI3 Kinase (p110(E545K)/p85)(h) (Homo sapiens, UniProt P42336, E545K)
T11 construct: gene PIK3CA
Method in brief: as §1

[21] = molecular target: T12, SIK(h) (Homo sapiens, UniProt P57059)
T12 construct: gene SIK1
Method in brief: as §1

[22] = molecular target: T13, PKA(h) (Homo sapiens, UniProt P17612)
T13 construct: gene PRKACA
Method in brief: as §1

T8 sequence (Q13131 whole entry): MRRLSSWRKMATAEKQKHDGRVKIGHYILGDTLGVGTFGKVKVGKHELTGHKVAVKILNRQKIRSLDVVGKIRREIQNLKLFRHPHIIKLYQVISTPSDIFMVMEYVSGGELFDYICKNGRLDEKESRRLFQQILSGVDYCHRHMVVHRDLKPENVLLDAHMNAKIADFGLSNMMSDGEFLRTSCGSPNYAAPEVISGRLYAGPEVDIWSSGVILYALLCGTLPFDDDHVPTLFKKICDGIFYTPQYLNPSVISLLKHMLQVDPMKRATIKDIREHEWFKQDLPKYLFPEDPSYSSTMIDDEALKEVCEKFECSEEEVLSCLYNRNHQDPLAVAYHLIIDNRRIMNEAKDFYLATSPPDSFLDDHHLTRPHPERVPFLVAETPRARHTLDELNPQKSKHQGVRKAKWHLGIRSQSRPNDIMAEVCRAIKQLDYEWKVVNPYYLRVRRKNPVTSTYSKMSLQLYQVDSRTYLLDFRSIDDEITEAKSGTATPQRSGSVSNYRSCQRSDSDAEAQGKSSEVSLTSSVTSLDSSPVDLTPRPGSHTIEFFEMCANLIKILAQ
T8 sequence (P54619 whole entry partner): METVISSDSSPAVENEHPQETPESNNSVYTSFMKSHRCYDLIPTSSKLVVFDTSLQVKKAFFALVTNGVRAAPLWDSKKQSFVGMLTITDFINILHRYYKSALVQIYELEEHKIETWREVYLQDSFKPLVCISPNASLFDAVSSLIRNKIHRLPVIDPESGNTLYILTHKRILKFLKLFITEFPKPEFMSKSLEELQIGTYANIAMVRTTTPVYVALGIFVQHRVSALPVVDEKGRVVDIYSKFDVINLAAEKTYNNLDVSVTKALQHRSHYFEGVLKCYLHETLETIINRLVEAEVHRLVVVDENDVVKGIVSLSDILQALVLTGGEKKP
T8 sequence (Q9Y478 whole entry partner): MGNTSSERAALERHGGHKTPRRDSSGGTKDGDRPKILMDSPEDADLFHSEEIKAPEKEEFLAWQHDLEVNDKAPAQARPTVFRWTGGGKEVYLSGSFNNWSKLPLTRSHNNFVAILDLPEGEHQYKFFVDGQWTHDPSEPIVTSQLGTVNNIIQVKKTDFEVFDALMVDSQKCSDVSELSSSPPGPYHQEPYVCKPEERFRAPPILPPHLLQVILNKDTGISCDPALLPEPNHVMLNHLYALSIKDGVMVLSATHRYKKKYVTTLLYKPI
T10 sequence (Q02779 whole entry): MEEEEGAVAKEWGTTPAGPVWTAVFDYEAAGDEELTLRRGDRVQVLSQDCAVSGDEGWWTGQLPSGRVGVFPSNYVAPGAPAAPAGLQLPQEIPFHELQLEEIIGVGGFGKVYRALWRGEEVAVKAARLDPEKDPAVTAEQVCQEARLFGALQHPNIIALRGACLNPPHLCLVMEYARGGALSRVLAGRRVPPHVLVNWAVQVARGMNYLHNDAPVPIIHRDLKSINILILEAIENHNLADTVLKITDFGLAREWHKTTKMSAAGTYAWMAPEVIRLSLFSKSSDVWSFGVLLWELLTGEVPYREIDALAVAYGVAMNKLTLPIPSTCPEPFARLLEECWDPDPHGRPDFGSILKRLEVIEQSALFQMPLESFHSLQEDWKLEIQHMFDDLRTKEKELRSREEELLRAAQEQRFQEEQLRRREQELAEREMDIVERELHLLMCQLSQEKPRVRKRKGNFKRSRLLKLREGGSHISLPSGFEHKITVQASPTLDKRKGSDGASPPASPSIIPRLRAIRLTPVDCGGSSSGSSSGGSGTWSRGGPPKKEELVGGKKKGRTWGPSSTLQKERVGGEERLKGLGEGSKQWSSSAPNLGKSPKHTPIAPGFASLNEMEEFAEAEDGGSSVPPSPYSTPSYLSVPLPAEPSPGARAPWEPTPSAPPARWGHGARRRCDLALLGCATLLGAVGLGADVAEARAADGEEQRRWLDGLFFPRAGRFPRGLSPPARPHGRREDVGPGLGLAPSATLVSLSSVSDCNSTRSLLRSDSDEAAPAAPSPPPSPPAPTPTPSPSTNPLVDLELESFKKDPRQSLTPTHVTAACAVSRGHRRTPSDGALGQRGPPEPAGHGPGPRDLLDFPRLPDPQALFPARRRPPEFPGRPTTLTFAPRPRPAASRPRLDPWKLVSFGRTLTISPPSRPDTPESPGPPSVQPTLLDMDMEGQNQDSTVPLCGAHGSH
Chain of VRK1(h) (Q99986 whole entry): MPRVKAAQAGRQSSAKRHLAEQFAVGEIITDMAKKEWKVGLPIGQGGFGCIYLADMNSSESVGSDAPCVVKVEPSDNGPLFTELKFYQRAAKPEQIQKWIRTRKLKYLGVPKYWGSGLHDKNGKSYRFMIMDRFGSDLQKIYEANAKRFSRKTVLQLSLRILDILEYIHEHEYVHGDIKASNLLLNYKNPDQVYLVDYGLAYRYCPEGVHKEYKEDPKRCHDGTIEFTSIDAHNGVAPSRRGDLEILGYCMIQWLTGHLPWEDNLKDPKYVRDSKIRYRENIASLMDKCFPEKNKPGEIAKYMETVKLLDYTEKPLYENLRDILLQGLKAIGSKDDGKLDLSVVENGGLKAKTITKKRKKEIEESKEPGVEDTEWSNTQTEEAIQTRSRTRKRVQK
T1 sequence (O96017 whole entry I157T): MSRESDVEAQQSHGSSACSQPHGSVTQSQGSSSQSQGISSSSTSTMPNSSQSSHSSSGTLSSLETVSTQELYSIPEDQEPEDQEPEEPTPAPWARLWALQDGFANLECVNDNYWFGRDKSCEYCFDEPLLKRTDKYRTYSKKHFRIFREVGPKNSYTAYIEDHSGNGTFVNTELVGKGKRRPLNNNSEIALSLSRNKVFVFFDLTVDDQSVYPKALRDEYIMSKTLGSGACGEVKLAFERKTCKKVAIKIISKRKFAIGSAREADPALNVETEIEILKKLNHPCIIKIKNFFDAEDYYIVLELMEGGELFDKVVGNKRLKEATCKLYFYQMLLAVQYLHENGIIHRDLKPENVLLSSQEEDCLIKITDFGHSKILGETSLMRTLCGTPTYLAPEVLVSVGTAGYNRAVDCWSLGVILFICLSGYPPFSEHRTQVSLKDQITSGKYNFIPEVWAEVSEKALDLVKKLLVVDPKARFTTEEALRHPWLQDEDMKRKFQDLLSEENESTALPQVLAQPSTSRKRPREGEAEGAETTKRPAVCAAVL
T5 sequence (Q04771 whole entry): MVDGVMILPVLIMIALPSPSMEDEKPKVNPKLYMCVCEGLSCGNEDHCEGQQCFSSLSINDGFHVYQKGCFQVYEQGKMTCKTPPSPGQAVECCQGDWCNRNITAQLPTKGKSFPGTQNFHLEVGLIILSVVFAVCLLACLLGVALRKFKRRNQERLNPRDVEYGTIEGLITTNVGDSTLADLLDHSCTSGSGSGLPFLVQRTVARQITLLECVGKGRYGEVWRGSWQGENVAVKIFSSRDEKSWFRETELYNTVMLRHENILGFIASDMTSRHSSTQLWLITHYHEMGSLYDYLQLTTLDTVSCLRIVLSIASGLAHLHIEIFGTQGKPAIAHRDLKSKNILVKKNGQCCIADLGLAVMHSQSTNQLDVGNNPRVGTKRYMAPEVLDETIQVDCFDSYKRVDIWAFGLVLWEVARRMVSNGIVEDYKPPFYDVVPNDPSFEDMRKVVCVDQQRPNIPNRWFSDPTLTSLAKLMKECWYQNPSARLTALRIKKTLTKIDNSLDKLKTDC
T7 sequence (Q9NZJ5 whole entry): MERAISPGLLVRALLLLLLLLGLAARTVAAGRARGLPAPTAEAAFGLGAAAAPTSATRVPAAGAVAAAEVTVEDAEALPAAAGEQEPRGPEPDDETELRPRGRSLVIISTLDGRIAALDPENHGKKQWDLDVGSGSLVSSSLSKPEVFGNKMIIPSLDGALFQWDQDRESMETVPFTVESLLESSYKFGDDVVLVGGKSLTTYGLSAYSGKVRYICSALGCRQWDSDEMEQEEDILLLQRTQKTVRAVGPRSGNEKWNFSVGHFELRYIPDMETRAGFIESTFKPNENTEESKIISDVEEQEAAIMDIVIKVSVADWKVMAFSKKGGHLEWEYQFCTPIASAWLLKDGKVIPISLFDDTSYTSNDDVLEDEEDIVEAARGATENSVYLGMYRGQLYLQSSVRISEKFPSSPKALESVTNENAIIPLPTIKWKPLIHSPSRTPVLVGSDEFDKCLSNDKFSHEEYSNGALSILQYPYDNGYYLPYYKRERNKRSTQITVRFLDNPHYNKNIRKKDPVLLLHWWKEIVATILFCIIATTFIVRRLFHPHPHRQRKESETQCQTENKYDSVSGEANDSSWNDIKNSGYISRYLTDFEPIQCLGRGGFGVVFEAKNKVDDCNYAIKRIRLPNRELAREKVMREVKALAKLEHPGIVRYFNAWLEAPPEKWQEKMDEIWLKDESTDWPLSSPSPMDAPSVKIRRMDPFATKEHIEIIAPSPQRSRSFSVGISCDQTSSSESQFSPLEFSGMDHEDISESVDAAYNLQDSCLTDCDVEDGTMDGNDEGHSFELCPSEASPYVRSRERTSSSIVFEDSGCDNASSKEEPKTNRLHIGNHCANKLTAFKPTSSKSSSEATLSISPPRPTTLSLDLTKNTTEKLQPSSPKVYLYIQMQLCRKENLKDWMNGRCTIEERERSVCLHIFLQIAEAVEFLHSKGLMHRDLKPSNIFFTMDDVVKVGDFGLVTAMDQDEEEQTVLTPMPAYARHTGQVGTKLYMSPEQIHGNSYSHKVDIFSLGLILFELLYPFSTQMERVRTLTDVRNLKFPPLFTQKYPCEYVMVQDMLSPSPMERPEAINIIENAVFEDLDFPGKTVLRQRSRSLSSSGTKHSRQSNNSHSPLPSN

SMILES: C1=C(c2nc(-c3cnn(C4CCNCC4)c3)cn3cc(-c4ccccc4)nc23)CCOC1 [YL-939]
- remaining activity at 10 µM [1]: 91%
- remaining activity at 10 µM [2]: 87%
- remaining activity at 10 µM [3]: 54%
- remaining activity at 10 µM [4]: 94%
- remaining activity at 10 µM [5]: 95%
- remaining activity at 10 µM [6]: 89%
- remaining activity at 10 µM [7]: 91%
- remaining activity at 10 µM [8]: 88%
- remaining activity at 10 µM [9]: 109%
- remaining activity at 10 µM [10]: 111%
- remaining activity at 10 µM [11]: 87%
- remaining activity at 10 µM [12]: 94%
- remaining activity at 10 µM [13]: 100%
- remaining activity at 10 µM [14]: 83%
- remaining activity at 10 µM [15]: 99%
- remaining activity at 10 µM [16]: 90%
- remaining activity at 10 µM [17]: 102%
- remaining activity at 10 µM [18]: 82%
- remaining activity at 10 µM [19]: 66%
- remaining activity at 10 µM [20]: 95%
- remaining activity at 10 µM [21]: 100%
- remaining activity at 10 µM [22]: 98%
